Peptide text beside a SMILES is read from it. * marks the point of attachment. Cbz = O=C(OCc1ccccc1)*; CH2F = FC*
Columns and labels:
Type in all cases: cell-based, human
[1] = system: keratinocytes; assay: Pemphigus sera-induced cell detachment (acantholysis) of keratinocytes; details: pretreatment with Z-IETD-FMK 100 μM for 30 min or NOK2 15 μg/ml, then 72 hrs sera; FIG. 12B
[2] = system: keratinocytes; assay: Pemphigus sera-induced Dsg3 cleavage and caspase-8 activation in confluent keratinocytes, Western blotting; details: pretreatment with Z-IETD-FMK 100 μM for 30 min or NOK2 15 μg/ml, then 72 hrs sera; FIG. 12A
Method: To investigate whether the extrinsic apoptotic pathway is responsible for dsg cleavage, we pretreated confluent keratinocytes with caspase-8 inhibitor Z-IETD-FMK (100 μM for 30 min) or with anti-FasL (NOK2, 15 μg/ml)Ab. Then cells were incubated for 72 hrs with healthy or untreated pemphigus sera. Protein extracts from the culture were analyzed by Western blotting using anti-Dsg3 antibodies and anti-caspase-8 Ab. Vinculin was used as internal control. (FIG. 12A).

[3] = system: keratinocytes; assay: Pemphigus sera-induced keratinocyte apoptosis, TUNEL staining; details: sera pretreated with anti-FasL neutralizing antibody (2.5 mg per ml for 30 min) or Z-IETD-FMK (100 μM for 30 min); FIG. 6
Method: As apoptotic keratinocytes are abundantly expressed in pemphigus, we wanted to explore whether pemphigus sera are capable of inducing apoptosis in normal human keratinocytes. To this purpose, keratinocytes were plated in chamber slides and cultured in serum-free medium (KGM) up to preconfluence. Cells were then cultured in keratinocyte basal medium and treated for 48 h with the addition of 25% serum from either untreated patients or patients treated with systemic corticosteroids. Sera from healthy subjects were used as controls. Apoptosis was evaluated by TUNEL staining in situ. Approximately 100 cells were evaluated, in randomly selected fields, and the percentage of TUNEL-positive cells was counted.
FasL is one of the major triggers of the caspase-8 activated extrinsic apoptotic pathway. Therefore, we wanted to evaluate whether this pathway plays a role in pemphigus apoptosis. To this purpose, patient sera were pretreated with anti-FasL neutralizing antibody or caspase-8 inhibitor, and added to keratinocyte cultures. Keratinocytes were cultured in KGM and treated with pemphigus sera or with sera from untreated patients. Sera were pretreated with anti-FasL neutralizing antibody (2.5 mg per ml for 30 min) or caspase-8 inhibitor Z-IETD-FMK (100 μM for 30 min). Apoptosis was evaluated by TUNEL staining.

## CC[C@H](C)[C@H](NC(=O)OCc1ccccc1)C(=O)N[C@@H](CCC(=O)OC)C(=O)N[C@H](C(=O)N[C@@H](CC(=O)OC)C(=O)CF)[C@@H](C)O [Z-IETD-FMK] (Cbz-IE(OMe)TD(OMe)-CH2F)
[1]
  cell detachment (i.e. acantholysis) induced by untreated pemphigus sera: prevented
[2]
  caspase-8 activation induced by untreated pemphigus sera: prevents
  dsg cleavage (Dsg3) induced by untreated pemphigus sera: prevents
[3]
  pemphigus sera-induced keratinocyte apoptosis (TUNEL staining): partially prevented
